Several values for one entry are separate records, joined by “and”; a condition that tells them apart may be missing. Identical values can stand only once.
What was measured:
[1] = target: T1, histamine on isolated guinea pig ileum (Cavia porcellus, UniProt P31389); test: Antihistamine activity (in vitro): antagonism of the spasmogenic effects of histamine on isolated guinea pig ileum; conditions: Tyrode solution, 30° C., antagonist 5-640 ng/ml, several assays per compound
T1 construct: strips of terminal guinea pig ileum suspended in a 4 ml capacity organ bath; from tissue; host or cells: terminal ileum strips of guinea pig (Dunkin Hartley male white guinea pigs)
T1 sequence (P31389 whole entry): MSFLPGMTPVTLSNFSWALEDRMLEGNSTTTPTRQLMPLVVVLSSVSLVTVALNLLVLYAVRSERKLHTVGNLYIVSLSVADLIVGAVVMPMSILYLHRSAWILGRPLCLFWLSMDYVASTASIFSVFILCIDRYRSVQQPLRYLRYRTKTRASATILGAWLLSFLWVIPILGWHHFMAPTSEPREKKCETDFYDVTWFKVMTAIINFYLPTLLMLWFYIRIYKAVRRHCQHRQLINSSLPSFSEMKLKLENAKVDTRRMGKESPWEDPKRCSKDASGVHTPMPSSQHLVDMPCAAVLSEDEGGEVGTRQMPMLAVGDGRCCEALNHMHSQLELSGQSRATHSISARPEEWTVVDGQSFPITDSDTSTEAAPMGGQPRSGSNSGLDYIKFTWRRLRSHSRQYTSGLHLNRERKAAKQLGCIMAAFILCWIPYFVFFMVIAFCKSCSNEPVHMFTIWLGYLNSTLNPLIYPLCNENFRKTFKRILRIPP
Procedure: (b) antagonise the spasmogenic effects of histamine on isolated guinea pig ileum.
(§1) Charles River Sprague Dawley male rats of 225-275 g and Dunkin Hartley male white guinea pigs of 250-300 g were used.
The anti-histamine activity of these compounds were measured in terms of pA2 values on guinea pig ileum using the method described by Arunlakshana, O. and Schild, H. O. (Brit J Pharm, 14, 1959, 48).
The pA2 is defined as the negative logarithm of the molar concentration of antagonist that will reduce the response of a double dose of agonist to that of a single dose.
Assays were carried out using strips of terminal guinea pig ileum suspended in a 4 ml capacity organ bath. The ileum was immersed in aerated Tyrode solution at a temperature of 30° C. and a tension of 1 gm was applied to the gut. Longitudinal contractions of the gut were recorded isotonically using a 2LD01 Devices transducer, a R2502-2 Devices optical wedge and a RE511.20 Smiths servoscribe flat bed recorder.
The tissue was constantly immersed in Tyrode solution washing was by fluid displacement from below. […]
The height of the response was measured in mms and a mean value calculated. […] The dose of histamine which produced a response of 100 mms were obtained for each curve from the graph and the ratio designated CR was calculated from [formula] […]

[2] = test system: rat passive peritoneal anaphylaxis; test: Rat passive peritoneal anaphylaxis (PPA): histamine, SRS-A and dye in peritoneal fluid; type: in vivo; conditions: mean ± SEM, 5-7 rats per group
From the text: (a) inhibit rat passive peritoneal anaphylaxis; and
(a) Rat passive peritoneal anaphylaxis (PPA)
The method has been described previously (Ross, Janet W., Smith, H. and Spicer, Barbara A. Increased vascular permeability during passive peritoneal anaphylaxis in the rat, Int Arch Allergy appl Immun, 51, 226, 1976).
as §1
This was raised in rats in one of two ways.
Charles River Sprague Dawley male rats of 225 to 275 g were given subcutaneous injections of 10 μg of ovalbumin (chicken egg albumin; crystallised and lyophilised, grade 3, Sigma London), in 0.5 ml of a suspension prepared by adding 1 ml of a 0.1 mg/ml solution of ovalbumin, in isotonic saline, to 4 ml of a 1% suspension of aluminium hydroxide in saline (Alhydrogel; Miles Laboratories, England; diluted 1:1 with isotonic saline). The rats were bled on day 10.
Charles River Sprague Dawley male rats of 225 to 300 g were given intraperitoneal injections of 0.5 ml of Bordetella pertussis vaccine (4×10^10 organisms/ml Burroughs Wellcome, London) and subcutaneous injections of 0.5 ml of an emulsion of 100 mg of ovalbumin of 2 ml of isotonic saline and 3 ml of Freund's incomplete adjuvant (Pifco Laboratories, Michigan USA). The rats were bled on day 18.
The rats were bled by cardiac puncture, the blood was pooled, from groups of rats treated similarly, and the serum separated, stored at -20° and thawed only once before use. The serum sensitised rats for passive cutaneous anaphylaxis (carried out as described: Spicer, Barbara A; Ross, Janet W and Smith, H; Inhibition of immediate hypersensitivity reactions in the rat by disodium cromoglycate and a nitroindanedione, Clin exp, Immunol, 21, 419, 1975) to a dilution of 1:32 to 1:64 persisting for at least 72 hours after sensitisation.
Rats were given intraperitoneal injections of 2 ml of a 1:5 dilution of the rat anti-serum in isotonic saline. Two hours later 0.3 ml of a 5% solution of Pontamine Sky Blue (Raymond A. Lamb, London) in isotonic saline was injected intravenously, followed by an intraperitoneal injection of the test compound in 1 ml of saline; (control rats received 1 ml of saline); followed 30 seconds later by an intraperitoneal injection of 5 ml of a Tyrode solution containing 50 μg/ml heparin and 0.4 mg/ml of ovalbumin. The concentrations of the compounds were quoted as those in the 6 ml of fluid injected intraperitoneally. Exactly 5 minutes after challenge the rats were stunned and bled and their peritoneal fluids were collected by opening their peritoneal cavities over funnels into polycarbonate tubes in ice. The supernatants were separated from the cellular residue by centrifuging at 150 g for 5 minutes and any samples obviously contaminated with blood were discarded for estimattion of dye, histamine and SRS-A. Groups of at least 5 rats were used for each dose of compound and the treatments were randomised.
Collected peritoneal fluids were immediately cooled to 0° C. and centrifuged and the supernatant fluids assayed for dye within 2 hours. 0.5 ml samples of the supernatants were added to 1 ml of 12% trichloracetic acid and stored at -20° C. and used to assay for histamine. The remainders of the supernatant fluids were placed in a boiling water bath for 5 minutes and stored frozen at -20° C. until assayed for SRS-A.
The optical densities (OD) at 625 nm of the supernatants were determined. Samples were taken from supernatants with an OD greater than 2 and diluted in Tyrode's solution before reading.
Histamine was assayed using an automated spectrofluorimetric system (Technicon Autoanalyser) by a method similar to that of Evans, D.P., Lewis, J. A. and Thomson, D. S.; (An automated fluorimetric assay for the rapid determination of histamine in biological fluids. Life Sci 12,327, 1973). […]

pA2 values obtained in different assays [1]	Kb ([1]; read-out: pA2 values obtained in different assays (converted))	Structure (SMILES)	Dye concentration in peritoneal fluid as % of mean of controls ([2]; 2 × 10^-5 M injected ip)	Histamine concentration in peritoneal fluid as % of mean of controls ([2]; 2 × 10^-5 M injected ip)	SRS-A concentration in peritoneal fluid as % of mean of controls ([2]; 2 × 10^-5 M injected ip)	Dye concentration in peritoneal fluid as % of mean of controls ([2]; 2 × 10^-6 M injected ip)	Histamine concentration in peritoneal fluid as % of mean of controls ([2]; 2 × 10^-6 M injected ip)	SRS-A concentration in peritoneal fluid as % of mean of controls ([2]; 2 × 10^-6 M injected ip)	Dye concentration in peritoneal fluid as % of mean of controls ([2]; 10^-5 M injected ip)	Histamine concentration in peritoneal fluid as % of mean of controls ([2]; 10^-5 M injected ip)	SRS-A concentration in peritoneal fluid as % of mean of controls ([2]; 10^-5 M injected ip)	Dye concentration in peritoneal fluid as % of mean of controls ([2]; 10^-6 M injected ip)	Histamine concentration in peritoneal fluid as % of mean of controls ([2]; 10^-6 M injected ip)	SRS-A concentration in peritoneal fluid as % of mean of controls ([2]; 10^-6 M injected ip)	Dye concentration in peritoneal fluid as % of mean of controls ([2]; 10^-7 M injected ip)	Histamine concentration in peritoneal fluid as % of mean of controls ([2]; 10^-7 M injected ip)	SRS-A concentration in peritoneal fluid as % of mean of controls ([2]; 10^-7 M injected ip)
9.1 and 9.0	–	O=C1c2cc(OCCCN3CCN(Cc4ccccc4Cl)CC3)ccc2C(=O)c2[nH]nnc21 [Example 3, 6-{3-[4-(2-Chlorobenzyl)-1-piperazinyl]propyloxy}-4,9-dihydro-4,9-dioxo-1H-naphtho[2,3-d]-v-triazole]	–	–	–	–	–	–	–	–	–	–	–	–	–	–	–
–	1 nM and 0.501 nM (2×) and 1.26 nM	O=C1c2cc(OCCCN3CCN(Cc4ccc(Cl)cc4)CC3)ccc2C(=O)c2[nH]nnc21 [Example 1, 6-{3-[4-(4-Chlorobenzyl)-1-piperazinyl]propyloxy}-4,9-dihydro-4,9-dioxo-1H-naphtho[2,3-d]-v-triazole]	29 ± 2 % of mean of controls	16 ± 2 % of mean of controls	75 ± 13 % of mean of controls	47 ± 6 % of mean of controls	23 ± 3 % of mean of controls	119 ± 25 % of mean of controls	38 ± 3 % of mean of controls	17 ± 3 % of mean of controls	39 ± 8 % of mean of controls	54 ± 6 % of mean of controls	27 ± 5 % of mean of controls	65 ± 18 % of mean of controls	75 ± 7 % of mean of controls	90 ± 16 % of mean of controls	109 ± 18 % of mean of controls
–	–	O=C1c2cccc(OCCCN3CCN(Cc4ccc(Cl)cc4)CC3)c2C(=O)c2nn[nH]c21 [Example 4, 5-{3-[4-(4-Chlorobenzyl)-1-piperazinyl]-propyloxy}-4,9-dihydro-4,9-dioxo-1H-naphtho-[2,3-d]-v-triazole]	–	–	–	–	–	–	43 ± 2 % of mean of controls	10 ± 1 % of mean of controls	–	60 ± 11 % of mean of controls	27 ± 4 % of mean of controls	–	85 ± 9 % of mean of controls	67 ± 8 % of mean of controls	–

Reference: patent publication US4378360A, “6-{3-[4-(Substituted benzyl)-1-piperazinyl]propyloxy}-4,9-dihydro-4,9-dioxo-1H-naphtho[2,3-d-]- v” (Beecham Group Limited, priority 1980, dated 1983)
